Reference: ChEMBL document CHEMBL4251732, “Discovery of Novel Indoleamine 2,3-Dioxygenase 1 (IDO1) and Histone Deacetylase (HDAC) Dual Inhibitors” (ACS Med Chem Lett, 2018)
Calls of active or inactive are those of the source. No cut-off for these calls is given here.

Key:
[1] = test system: Lewis lung carcinoma cell line; test: Antiproliferative activity against mouse LLC cells after 48 hrs by CCK-8 assay; type: functional, cell-based
CT26 = test: Antiproliferative activity against mouse CT26 cells after 48 hrs by CCK-8 assay; type: functional, cell-based; details: CT26, 48 h
A549 = test: Antiproliferative activity against human A549 cells after 48 hrs by CCK-8 assay; type: functional, cell-based; details: A549, 48 h
HCT-116 [2] = test: Antiproliferative activity against human HCT116 cells after 48 hrs by CCK-8 assay; type: functional, cell-based; details: HCT-116, 48 h
HT-29 = test: Antiproliferative activity against human HT-29 cells after 48 hrs by CCK-8 assay; type: functional, cell-based; details: HT-29, 48 h
Mus musculus [3] = test: In vivo inhibition of IDO1 in wild type C57BL/6 mouse assessed as reduction in kynurenine levels in plasma at 100 mg/kg, po administered via gavage measured up to 1 hr by LC-MS/MS analysis; type: functional, organism-based
Mus musculus [4] = test: In vivo inhibition of IDO1 in wild type C57BL/6 mouse assessed as reduction in kynurenine levels in plasma at 100 mg/kg, po administered via gavage after 8 hrs by LC-MS/MS analysis; type: functional; details: C57BL/6, po
[5] = test system: Lewis lung carcinoma cell line; test: Antitumor activity against mouse LLC cells implanted in immunocompetent C57BL/6 mouse assessed as tumor growth inhibition at 100 mg/kg, po bid administered via gavage for 14 consecutive days measured every 4 days relative to control; type: functional; details: 96 h, read-out: TGI
Histone deacetylase 1 = Histone deacetylase 1 (Homo sapiens, UniProt Q13547); test: Inhibition of recombinant human full length HDAC1 using fluorogenic substrate 3 after 30 mins by fluorescence assay
Chain of Histone deacetylase 1 (Q13547 whole entry, the tested form may be a part): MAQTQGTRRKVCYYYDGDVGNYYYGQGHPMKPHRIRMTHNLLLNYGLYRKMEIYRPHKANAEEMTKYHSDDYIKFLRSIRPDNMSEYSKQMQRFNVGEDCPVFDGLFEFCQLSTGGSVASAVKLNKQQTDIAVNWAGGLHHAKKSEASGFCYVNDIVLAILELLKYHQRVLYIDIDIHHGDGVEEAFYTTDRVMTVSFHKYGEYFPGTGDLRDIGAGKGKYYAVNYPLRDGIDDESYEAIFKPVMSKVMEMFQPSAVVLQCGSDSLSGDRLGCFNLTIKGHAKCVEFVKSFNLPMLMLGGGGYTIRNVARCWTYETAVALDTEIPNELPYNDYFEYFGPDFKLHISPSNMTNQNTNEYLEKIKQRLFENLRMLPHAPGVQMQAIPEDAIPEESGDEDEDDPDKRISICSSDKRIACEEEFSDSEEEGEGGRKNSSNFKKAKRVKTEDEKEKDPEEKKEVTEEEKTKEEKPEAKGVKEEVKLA

[6] = biological target: T1, Indoleamine 2,3-dioxygenase 1 (Homo sapiens, UniProt P14902); test: Inhibition of recombinant human GST-tagged IDO1 (1 to 404 residues) using D-Tryptophan as substrate
Target sequence in this assay (P14902 whole entry, the tested form may be a part): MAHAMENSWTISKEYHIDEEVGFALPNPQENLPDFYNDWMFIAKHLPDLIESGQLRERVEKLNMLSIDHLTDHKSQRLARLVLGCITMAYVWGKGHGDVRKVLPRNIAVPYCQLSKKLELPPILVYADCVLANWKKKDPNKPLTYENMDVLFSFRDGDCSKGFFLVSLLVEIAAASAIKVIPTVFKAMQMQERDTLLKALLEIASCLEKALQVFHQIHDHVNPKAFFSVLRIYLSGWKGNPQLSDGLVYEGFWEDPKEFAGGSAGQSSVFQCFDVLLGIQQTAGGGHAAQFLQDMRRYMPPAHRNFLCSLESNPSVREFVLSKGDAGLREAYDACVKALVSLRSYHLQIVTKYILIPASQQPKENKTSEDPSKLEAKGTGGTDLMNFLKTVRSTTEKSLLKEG

[7] = biological target: T1, Indoleamine 2,3-dioxygenase 1; test: Inhibition of recombinant human GST-tagged IDO1 (1 to 404 residues) at 1 uM using D-Tryptophan as substrate relative to control
Target sequence in this assay (P14902 whole entry, looked up, the tested form may be a part): as the sequence (P14902 whole entry, the tested form may be a part) above

HCT-116 [8] = test: Induction of apoptosis in human HCT116 cells after 48 hrs by Annexin V-FITC/propidium iodide staining based flow cytometry; type: functional, cell-based
HCT-116 [9] = test: Induction of apoptosis in human HCT116 cells at 5 uM after 48 hrs by Annexin V-FITC/propidium iodide staining based flow cytometry relative to control; type: functional
HCT-116 [10] = test: Induction of apoptosis in human HCT116 cells at 10 uM after 48 hrs by Annexin V-FITC/propidium iodide staining based flow cytometry relative to control; type: functional
HCT-116 [11] = test: Induction of apoptosis in human HCT116 cells at 20 uM after 48 hrs by Annexin V-FITC/propidium iodide staining based flow cytometry relative to control; type: functional
HCT-116 [12] = test: Cell cycle arrest in human HCT116 cells assessed as accumulation at G2/M phase up to 48 hrs by propidium iodide staining based flow cytometry; type: functional
[13] = Cmax in Sprague-Dawley rat at 100 mg/kg, po administered as single dose via gavage by LC-MS/MS analysis; type: ADME, organism-based; set-up: dose 100 mg/kg, route oral; details: in vivo
[14] = Tmax in Sprague-Dawley rat at 100 mg/kg, po administered as single dose via gavage by LC-MS/MS analysis; type: ADME, organism-based; details: in vivo
[15] = Half life in Sprague-Dawley rat at 100 mg/kg, po administered as single dose via gavage by LC-MS/MS analysis; type: ADME, organism-based; details: in vivo
[16] = AUC (0 to infinity) in Sprague-Dawley rat at 100 mg/kg, po administered as single dose via gavage by LC-MS/MS analysis; type: ADME, organism-based; set-up: dose 100 mg/kg, time infinity, route oral; details: in vivo
[17] = AUC in immunocompetent C57BL/6 mouse implanted with mouse LLC cells at 100 mg/kg, po bid administered via gavage; type: ADME, organism-based; details: in vivo
[18] = Half life in immunocompetent C57BL/6 mouse implanted with mouse LLC cells at 100 mg/kg, po bid administered via gavage; type: ADME, organism-based; details: in vivo

Structure (SMILES) | IC50 [1] | IC50 (CT26) | IC50 (A549) | IC50 (HCT-116 [2]) | IC50 (HT-29) | IC50 (Histone deacetylase 1) | IC50 [6] | inhibition [7] | further results
NS(=O)(=O)NCCNc1nonc1/C(=N/O)Nc1ccc(F)c(Br)c1 [EPACADOSTAT] | > 100 µM | > 100 µM | > 100 µM | > 100 µM | > 100 µM |  |  |  | inhibition (Mus musculus [3]): Active; inhibition in vivo at 100 mg/kg (Mus musculus [4]): 50%; inhibition in vivo at 100 mg/kg [5]: 54.3%
O=C(CCCCCC(=O)NCCNc1nonc1/C(=N/O)Nc1ccc(F)c(Br)c1)NO | 90.1 µM | 95.5 µM | 40.7 µM | 17.5 µM | 28.7 µM | 0.0092 µM | 0.113 µM |  | 
O=C(CCCCn1cc(-c2ccc(C(=O)NCCNc3nonc3/C(=N/O)Nc3ccc(F)c(Br)c3)cc2)nn1)NO | > 100 µM | > 100 µM | > 100 µM | 37.5 µM | > 100 µM | 0.895 µM |  | 88% | 
O=C(CCCC(=O)NCCNc1nonc1/C(=N/O)Nc1ccc(F)c(Br)c1)NO | > 100 µM | > 100 µM | > 100 µM | 80.2 µM | > 100 µM | 0.121 µM | 0.133 µM |  | 
O=C(CCCCCn1cc(-c2ccc(C(=O)NCCNc3nonc3/C(=N/O)Nc3ccc(F)c(Br)c3)cc2)nn1)NO | > 100 µM | > 100 µM | > 100 µM | > 100 µM | > 100 µM | 0.0665 µM |  | 87% | 
O=C(CCCCC(=O)NCCNc1nonc1/C(=N/O)Nc1ccc(F)c(Br)c1)NO | > 100 µM | > 100 µM | > 100 µM | 85.4 µM | > 100 µM | 0.308 µM | 0.123 µM |  | 
NS(=O)(=O)NCCNc1nonc1C(=NO)Nc1ccc(F)c(Br)c1 [EPACADOSTAT] |  |  |  |  |  |  |  |  | Cmax [13]: 5560 ng/mL; Tmax [14]: 0.8 h; half-life [15]: 4.5 h; AUC(0-inf) [16]: 30700 ng·h/mL; AUC [17]: 70.2 µM·h; half-life [18]: 4.5 h
O=C(NO)c1ccc(C(=O)NCCNc2nonc2/C(=N/O)Nc2ccc(F)c(Br)c2)cc1 | > 100 µM | > 100 µM | 89.8 µM | 28.1 µM | 68 µM | 0.262 µM |  | 95% | 

Continued, in another order:

IC50 [1] | IC50 (CT26) | IC50 (A549) | IC50 (HCT-116 [2]) | IC50 (HT-29) | IC50 (Histone deacetylase 1) | IC50 [6] | inhibition [7] | Structure (SMILES) | further results
56.6 µM | 97.5 µM | 36 µM | 4.7 µM | 14.9 µM | 0.0477 µM | 0.14 µM |  | O=C(CCCCCCC(=O)NCCNc1nonc1/C(=N/O)Nc1ccc(F)c(Br)c1)NO | Activity (HCT-116 [8]): Dose-dependent effect; Activity (HCT-116 [9]): 25.5%; Activity (HCT-116 [10]): 31.1%; Activity (HCT-116 [11]): 44.5%; Activity (HCT-116 [12]): Active
36 µM | 90.2 µM | 45.5 µM | 29.4 µM | 23.9 µM | 0.0235 µM | 0.21 µM |  | O=C(CCCCCCn1cc(-c2ccc(C(=O)NCCNc3nonc3/C(=N/O)Nc3ccc(F)c(Br)c3)cc2)nn1)NO | 
15.1 µM | 23.3 µM | 20.7 µM | 6.36 µM | 12.2 µM | 0.604 µM | 0.26 µM |  | Nc1ccccc1NC(=O)c1ccc(C(=O)NCCNc2nonc2/C(=N/O)Nc2ccc(F)c(Br)c2)cn1 | 
53.3 µM | 38.9 µM | 41.7 µM | 12.4 µM | 23.3 µM | 0.0705 µM | 0.027 µM |  | O=C(/C=C/c1cccc(C(=O)NCCNc2nonc2/C(=N/O)Nc2ccc(F)c(Br)c2)c1)NO | 
18.3 µM | 38.8 µM | 14.5 µM | 7.12 µM | 20.3 µM | 1.43 µM |  | 76% | Nc1ccccc1NC(=O)c1ccc(C(=O)NCCNc2nonc2/C(=N/O)Nc2ccc(F)c(Br)c2)s1 | 
31.4 µM | 25.5 µM | 27.8 µM | 16.2 µM | 46.4 µM | 0.633 µM |  | 79% | Nc1ccccc1NC(=O)c1cccc(C(=O)NCCNc2nonc2/C(=N/O)Nc2ccc(F)c(Br)c2)c1 | 
21.6 µM | 12.8 µM | 25.6 µM | 5.89 µM | 14.2 µM | 0.0462 µM | 0.168 µM |  | O=C(/C=C/c1ccc(C(=O)NCCNc2nonc2/C(=N/O)Nc2ccc(F)c(Br)c2)cc1)NO | Activity (HCT-116 [8]): Dose-dependent effect; Activity (HCT-116 [9]): 26.7%; Activity (HCT-116 [10]): 45.4%; Activity (HCT-116 [11]): 61.3%; Activity (HCT-116 [12]): Active
